Earlier results as cited in US20060018956A1, “Dermal application system for aminolevulinic acid-derivatives” (priority 2002, published 2006).

Details: fresh ALA solution, approximate physiological value of 8, after just two weeks

undecomposed active substance: approx. 10%
Structure (SMILES): NCC(=O)CCC(=O)O [ALA, 5-aminolaevulinic acid]
